Assay results: patent US20260216149A1, “USE OF DIAZAPHENANTHRENE PROTONATED DIMER” (XI’AN LIZE TECHNOLOGY PROJECT INVESTMENT CO., LTD., priority 2023, published 2026)

Columns and labels:
E. coli = details: 12 h culture, absorbance 600 nm
C. albicans = assay: Tests for MIC and MFC; format: cell-based, Candida albicans; details: unit assumed; for MIC: 12 h culture, absorbance 600 nm; for MFC: subculture further 12 h
S. thermophilus = assay: Tests for MIC and MBC; format: cell-based, Streptococcus thermophilus; details: unit assumed; for MIC: 12 h culture, absorbance 600 nm; for MBC: subculture further 12 h
M. furfur = assay: Tests for MIC and MFC; format: cell-based, Malassezia furfur; details: unit assumed; for MIC: 12 h culture, absorbance 600 nm; for MFC: subculture further 12 h
B. cereus = assay: Tests for MIC and MBC; format: cell-based, Bacillus cereus; details: unit assumed; for MIC: 12 h culture, absorbance 600 nm; for MBC: subculture further 12 h
Y. enterocolitis = assay: Tests for MIC and MBC; format: cell-based, Yersinia enterocolitis; details: unit assumed; for MIC: 12 h culture, absorbance 600 nm; for MBC: subculture further 12 h
L. monocytogenes = assay: Tests for MIC and MBC; format: cell-based, Listeria monocytogenes; details: unit assumed; for MIC: 12 h culture, absorbance 600 nm; for MBC: subculture further 12 h
B. subtilis = assay: Tests for MIC and MBC; format: cell-based, Bacillus subtilis; details: unit assumed; for MIC: 12 h culture, absorbance 600 nm; for MBC: subculture further 12 h
C. perfringens = details: 12 h culture, absorbance 600 nm
S. enteritidis = assay: Tests for MIC and MBC; format: cell-based, Salmonella enteritidis; details: unit assumed; for MIC: 12 h culture, absorbance 600 nm; for MBC: subculture further 12 h
C. neoformans = assay: Tests for MIC and MFC; format: cell-based, Cryptococcus neoformans; details: unit assumed; for MIC: 12 h culture, absorbance 600 nm; for MFC: subculture further 12 h
A. flavus = assay: Tests for MIC and MFC; format: cell-based, Aspergillus flavus; details: unit assumed; for MIC: 12 h culture, absorbance 600 nm; for MFC: subculture further 12 h
S. aureus = details: 12 h culture, absorbance 600 nm
S. lactis = assay: Tests for MIC and MBC; format: cell-based, Streptococcus lactis; details: unit assumed; for MIC: 12 h culture, absorbance 600 nm; for MBC: subculture further 12 h
P. vulgaris = assay: Tests for MIC and MBC; format: cell-based, Proteus vulgaris; details: unit assumed; for MIC: 12 h culture, absorbance 600 nm; for MBC: subculture further 12 h
E. faecalis = assay: Tests for MIC and MBC; format: cell-based, Enterococcus faecalis; details: unit assumed; for MIC: 12 h culture, absorbance 600 nm; for MBC: subculture further 12 h
K. pneumoniae = assay: Tests for MIC and MBC; format: cell-based, Klebsiella pneumoniae; details: unit assumed; for MIC: 12 h culture, absorbance 600 nm; for MBC: subculture further 12 h
C. diphtheriae = details: 12 h culture, absorbance 600 nm
M. globosa = assay: Tests for MIC and MFC; format: cell-based, Malassezia globosa; details: unit assumed; for MIC: 12 h culture, absorbance 600 nm; for MFC: subculture further 12 h
P. aeruginosa = assay: Tests for MIC and MBC; format: cell-based, Pseudomonas aeruginosa; details: unit assumed; for MIC: 12 h culture, absorbance 600 nm; for MBC: subculture further 12 h
T. rubrum = assay: Tests for MIC and MFC; format: cell-based, Trichophyton rubrum; details: unit assumed; for MIC: 12 h culture, absorbance 600 nm; for MFC: subculture further 12 h
A. niger = assay: Tests for MIC and MFC; format: cell-based, Aspergillus niger; details: unit assumed; for MIC: 12 h culture, absorbance 600 nm; for MFC: subculture further 12 h
S. bovis = assay: Tests for MIC and MBC; format: cell-based, Streptococcus bovis; details: unit assumed; for MIC: 12 h culture, absorbance 600 nm; for MBC: subculture further 12 h
P. fluorescens = assay: Tests for MIC and MBC; format: cell-based, Pseudomonas fluorescens; details: unit assumed; for MIC: 12 h culture, absorbance 600 nm; for MBC: subculture further 12 h
S. mutans = assay: Tests for MIC and MBC; format: cell-based, Streptococcus mutans; details: unit assumed; for MIC: 12 h culture, absorbance 600 nm; for MBC: subculture further 12 h
H. staphylococcus = assay: Tests for MIC and MBC; format: cell-based, hemolytic staphylococcus; details: unit assumed; for MIC: 12 h culture, absorbance 600 nm; for MBC: subculture further 12 h
S. epidermidis = assay: Tests for MIC and MBC; format: cell-based, Staphylococcus epidermidis; details: unit assumed; for MIC: 12 h culture, absorbance 600 nm; for MBC: subculture further 12 h
[1] = test system: Mouse melanoma B16 cell line; assay: IC50 determination (CCK-8); format: cell-based; details: B16, RPMI 1640, treated 8 h
Method: (§1) The cells were washed with PBS (pH 7.4), added with a CCK-8 solution (Beijing Beyotime Biotechnology) to each well according to the instructions, and then incubated for 4 h.

[2] = test system: Mouse liver cancer H22 cell line; assay: IC50 determination (CCK-8); format: cell-based; details: H22, RPMI 1640, treated 8 h
Method: as §1

[3] = test system: Human neuroglioma U521MG cell Line; assay: IC50 determination (CCK-8); format: cell-based; details: DMEM HG, treated 8 h
Method: as §1

[4] = test system: Human neuroblastoma SH-SY5Y cell line; assay: IC50 determination (CCK-8); format: cell-based; details: DMEM/F12, treated 8 h
Method: as §1

[5] = test system: Human lung adenocarcinoma A549 cell line; assay: IC50 determination (CCK-8); format: cell-based; details: A549, DMEM HG, treated 8 h
Method: as §1

Cryptococcus neoformans = assay: Test for Cryptococcus-infected mice; format: in vivo; details: Example 1 2, 4, 8 mg/kg iv, fluconazole 8 mg/kg ip

Q: `F[Si-2](F)(F)(F)(F)F.c1cnc2c(c1)ccc1ccc[nH+]c12.c1cnc2c(c1)ccc1ccc[nH+]c12.c1cnc2c(c1)ccc1cccnc12.c1cnc2c(c1)ccc1cccnc12` [Example 2] was tested. Which MIC (E. coli) did it give?
A: 0.4

Q: What about the MIC (C. albicans) of the same compound?
A: 0.4 µg/mL

Q: And the MFC (C. albicans)?
A: 8 µg/mL

Q: And the MIC (S. thermophilus)?
A: 0.8 µg/mL

Q: And the MBC (S. thermophilus)?
A: 4 µg/mL

Q: And the MIC (M. furfur)?
A: 1 µg/mL

Q: What about the MFC (M. furfur) of the same compound?
A: 6 µg/mL

Q: What about the MIC (B. cereus) of the same compound?
A: 2 µg/mL

Q: What about the MBC (B. cereus) of the same compound?
A: 6 µg/mL

Q: And the MIC (Y. enterocolitis)?
A: 0.4 µg/mL

Q: What about the MBC (Y. enterocolitis) of the same compound?
A: 2 µg/mL

Q: What about the MIC (L. monocytogenes) of the same compound?
A: 0.3 µg/mL

Q: What about the MBC (L. monocytogenes) of the same compound?
A: 1.2 µg/mL

Q: What about the MIC (B. subtilis) of the same compound?
A: 0.6 µg/mL

Q: What about the MBC (B. subtilis) of the same compound?
A: 2.5 µg/mL

Q: And the MIC (C. perfringens)?
A: 2.5

Q: And the MIC (S. enteritidis)?
A: 0.8 µg/mL

Q: And the MBC (S. enteritidis)?
A: 4 µg/mL

Q: And the MIC (C. neoformans)?
A: 0.4 µg/mL

Q: And the MFC (C. neoformans)?
A: 5 µg/mL

Q: What about the MIC (A. flavus) of the same compound?
A: 0.4 µg/mL

Q: And the MFC (A. flavus)?
A: 6 µg/mL

Q: What about the MIC (S. aureus) of the same compound?
A: 0.4

Q: What about the MIC (S. lactis) of the same compound?
A: 1.2 µg/mL

Q: And the MBC (S. lactis)?
A: 4 µg/mL

Q: What about the MIC (P. vulgaris) of the same compound?
A: 0.8 µg/mL

Q: And the MBC (P. vulgaris)?
A: 4 µg/mL

Q: And the MIC (E. faecalis)?
A: 6 µg/mL

Q: And the MBC (E. faecalis)?
A: 20 µg/mL

Q: What about the MIC (K. pneumoniae) of the same compound?
A: 0.8 µg/mL

Q: And the MBC (K. pneumoniae)?
A: 5 µg/mL

Q: What about the MIC (C. diphtheriae) of the same compound?
A: 1.6

Q: What about the MIC (M. globosa) of the same compound?
A: 2 µg/mL

Q: And the MFC (M. globosa)?
A: 10 µg/mL

Q: And the MIC (P. aeruginosa)?
A: 0.4 µg/mL

Q: And the MBC (P. aeruginosa)?
A: 2 µg/mL

Q: What about the MIC (T. rubrum) of the same compound?
A: 1.6 µg/mL

Q: And the MFC (T. rubrum)?
A: 10 µg/mL

Q: What about the MIC (A. niger) of the same compound?
A: 0.4 µg/mL

Q: And the MFC (A. niger)?
A: 4 µg/mL

Q: And the MIC (S. bovis)?
A: 0.6 µg/mL

Q: And the MBC (S. bovis)?
A: 2 µg/mL

Q: What about the MIC (P. fluorescens) of the same compound?
A: 0.4 µg/mL

Q: What about the MBC (P. fluorescens) of the same compound?
A: 3 µg/mL

Q: And the MIC (S. mutans)?
A: 0.8 µg/mL

Q: And the MBC (S. mutans)?
A: 4 µg/mL

Q: And the MIC (H. staphylococcus)?
A: 0.2 µg/mL

Q: What about the MBC (H. staphylococcus) of the same compound?
A: 0.5 µg/mL

Q: What about the MIC (S. epidermidis) of the same compound?
A: 0.4 µg/mL

Q: What about the MBC (S. epidermidis) of the same compound?
A: 2.5 µg/mL

Q: What does the source list for `O=S(=O)(O)O.c1cnc2c(c1)ccc1cccnc12.c1cnc2c(c1)ccc1cccnc12.c1cnc2c(c1)ccc1cccnc12.c1cnc2c(c1)ccc1cccnc12` [Example 3]?
A: MIC (E. coli): 0.5; MIC (C. albicans): 0.5 µg/mL; MFC (C. albicans): 9 µg/mL; MIC (S. thermophilus): 1 µg/mL; MBC (S. thermophilus): 5 µg/mL; MIC (M. furfur): 1 µg/mL; MFC (M. furfur): 6 µg/mL; MIC (B. cereus): 2 µg/mL; MBC (B. cereus): 9 µg/mL; MIC (Y. enterocolitis): 0.5 µg/mL; MBC (Y. enterocolitis): 3 µg/mL; MIC (L. monocytogenes): 0.3 µg/mL; MBC (L. monocytogenes): 1.5 µg/mL; MIC (B. subtilis): 0.6 µg/mL; MBC (B. subtilis): 3 µg/mL; MIC (C. perfringens): 3; MIC (S. enteritidis): 1 µg/mL; MBC (S. enteritidis): 5 µg/mL; MIC (C. neoformans): 0.5 µg/mL; MFC (C. neoformans): 6 µg/mL; MIC (A. flavus): 0.5 µg/mL; MFC (A. flavus): 6 µg/mL; MIC (S. aureus): 0.5; MIC (S. lactis): 1.5 µg/mL; MBC (S. lactis): 6 µg/mL; MIC (P. vulgaris): 1 µg/mL; MBC (P. vulgaris): 6 µg/mL; MIC (E. faecalis): 8 µg/mL; MBC (E. faecalis): 30 µg/mL; MIC (K. pneumoniae): 1 µg/mL; MBC (K. pneumoniae): 6 µg/mL; MIC (C. diphtheriae): 2; MIC (M. globosa): 2 µg/mL; MFC (M. globosa): 12 µg/mL; MIC (P. aeruginosa): 0.5 µg/mL; MBC (P. aeruginosa): 3 µg/mL; MIC (T. rubrum): 2 µg/mL; MFC (T. rubrum): 12 µg/mL; MIC (A. niger): 0.5 µg/mL; MFC (A. niger): 6 µg/mL; MIC (S. bovis): 0.8 µg/mL; MBC (S. bovis): 3 µg/mL; MIC (P. fluorescens): 0.5 µg/mL; MBC (P. fluorescens): 3 µg/mL; MIC (S. mutans): 1 µg/mL; MBC (S. mutans): 5 µg/mL; MIC (H. staphylococcus): 0.2 µg/mL; MBC (H. staphylococcus): 0.6 µg/mL; MIC (S. epidermidis): 0.5 µg/mL; MBC (S. epidermidis): 3 µg/mL

Q: Which results are given for `F[P-](F)(F)(F)(F)F.O=[N+]([O-])c1cc2ccc[nH+]c2c2ncccc12.O=[N+]([O-])c1cc2cccnc2c2ncccc12` [Example 7]?
A: IC50 [1]: 320 µM; IC50 [2]: 320 µM; IC50 [3]: 320 µM; IC50 [4]: 32 µM; IC50 [5]: 320 µM; MIC (B. cereus): 0.5 µg/mL; MBC (B. cereus): 4 µg/mL

Q: What does the source list for `OC(Cn1cncn1)(Cn1cncn1)c1ccc(F)cc1F` [fluconazole]?
A: pathological symptoms of brains and lungs (cerebral edema, pneumonia) (Cryptococcus neoformans): pathological symptoms were improved; Cryptococcus-infected symptoms and weight (Cryptococcus neoformans; once a day for 9 days): the symptoms were improved, and the weight gained
